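Following 48 hours of exposure in 96-well plates, responses at five concentrations were used to interpolate endpoints linearly. The concentration for 50% growth inhibition is given as GI50.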 Active and inactive are the calls of the source. Cut-off read from the data, not from the text of the source: active = GI50 up to about 1.1 µM and inactive = higher.
Legend:
Experiment in all cases: inhibition of tumour cell growth, NCI panel, 48 h
M14 = test system: M14
MOLT-4 = test system: MOLT-4
OVCAR-3 = test system: OVCAR-3
U-251 = test system: U-251
DMS-273 = test system: DMS-273
NCI-H23 = test system: NCI-H23
COLO 205 = test system: COLO 205
UACC-62 = test system: UACC-62
SK-OV-3 = test system: SK-OV-3
RXF 393 = test system: RXF 393
DLD-1 = test system: DLD-1
CCRF-CEM = test system: CCRF-CEM
SNB-75 = test system: SNB-75
NCI-H226 = test system: NCI-H226
RPMI-8226 = test system: RPMI-8226
SNB-19 = test system: SNB-19
SF-268 = test system: SF-268
SN12C = test system: SN12C
DMS-114 = test system: DMS-114
786-0 = test system: 786-0
K562 = test system: K562
SF-295 = test system: SF-295
A498 = test system: A498
SK-MEL-2 = test system: SK-MEL-2
OVCAR-8 = test system: OVCAR-8
UACC-257 = test system: UACC-257
SR = test system: SR
KM12 = test system: KM12
SW-620 = test system: SW-620
Malme-3M = test system: Malme-3M
EKVX = test system: EKVX
HCT-15 = test system: HCT-15
ACHN = test system: ACHN
SNB-78 = test system: SNB-78
SK-MEL-5 = test system: SK-MEL-5
OVCAR-5 = test system: OVCAR-5
IGROV-1 = test system: IGROV-1
HCC 2998 = test system: HCC 2998
UO-31 = test system: UO-31
A549 = test system: A549
LXFL 529 = test system: LXFL 529
HOP-62 = test system: HOP-62
CAKI-1 = test system: CAKI-1
TK-10 = test system: TK-10
KM-20L2 = test system: KM-20L2
HL-60 = test system: HL-60
HT-29 = test system: HT-29
HOP-92 = test system: HOP-92
HCT-116 = test system: HCT-116
NCI-H522 = test system: NCI-H522
NCI-H460 = test system: NCI-H460
M19-MEL = test system: M19-MEL
LOX IMVI = test system: LOX IMVI
SK-MEL-28 = test system: SK-MEL-28
OVCAR-4 = test system: OVCAR-4
SF-539 = test system: SF-539
HOP-18 = test system: HOP-18
XF498 = test system: XF498

With `[O-][S+]1C(=c2ccc(=C3Sc4ccccc4S3)cc2)Sc2ccccc21` (centres undefined) the GI50 (M14) was 15.1 µM (inactive), the GI50 (MOLT-4) was > 71.9 µM (inactive) and the GI50 (OVCAR-3) was > 100 µM (inactive). For the same compound, the GI50 (U-251) was 14.9 µM (inactive), the GI50 (DMS-273) was 18.9 µM (inactive) and the GI50 (NCI-H23) was 16.3 µM (inactive). The GI50 (COLO 205) was > 100 µM (inactive), the GI50 (UACC-62) was 18.1 µM (inactive) and the GI50 (SK-OV-3) was 21.8 µM (inactive). For the same compound, the GI50 (RXF 393) was 24.2 µM (inactive), the GI50 (DLD-1) was 27.4 µM (inactive) and the GI50 (CCRF-CEM) was > 94.4 µM (inactive). For the same compound, the GI50 (SNB-75) was 19.1 µM (inactive), the GI50 (NCI-H226) was 19.2 µM (inactive) and the GI50 (RPMI-8226) was > 100 µM (inactive). The GI50 (SNB-19) was 17 µM (inactive), the GI50 (SF-268) was 12.4 µM (inactive) and the GI50 (SN12C) was 15.6 µM (inactive). The GI50 (DMS-114) was 20.8 µM (inactive), the GI50 (786-0) was 17 µM (inactive) and the GI50 (K562) was > 66.7 µM (inactive). The GI50 (SF-295) was 17.1 µM (inactive), the GI50 (A498) was 15.8 µM (inactive) and the GI50 (SK-MEL-2) was 21.3 µM (inactive). For the same compound, the GI50 (OVCAR-8) was 17.9 µM (inactive), the GI50 (UACC-257) was > 92.5 µM (inactive) and the GI50 (SR) was 89.5 µM (inactive). The GI50 (KM12) was 17.4 µM (inactive), the GI50 (SW-620) was > 100 µM (inactive) and the GI50 (Malme-3M) was > 100 µM (inactive). The GI50 (EKVX) was 20 µM (inactive), the GI50 (HCT-15) was 15.3 µM and the GI50 (ACHN) was 19.5 µM (inactive). For the same compound, the GI50 (SNB-78) was 53.3 µM (inactive), the GI50 (SK-MEL-5) was 19.2 µM (inactive) and the GI50 (OVCAR-5) was 18.3 µM (inactive). The GI50 (IGROV-1) was 38.5 µM (inactive), the GI50 (HCC 2998) was 16 µM (inactive) and the GI50 (UO-31) was 17.2 µM (inactive). The GI50 (A549) was 17.6 µM (inactive), the GI50 (LXFL 529) was 51.2 µM (inactive) and the GI50 (HOP-62) was 17.7 µM (inactive). For the same compound, the GI50 (CAKI-1) was > 52.7 µM (inactive), the GI50 (TK-10) was > 100 µM (inactive) and the GI50 (KM-20L2) was 17.3 µM (inactive). For the same compound, the GI50 (HL-60) was > 100 µM (inactive), the GI50 (HT-29) was 22.6 µM (inactive) and the GI50 (HOP-92) was > 67.3 µM (inactive). The GI50 (HCT-116) was 25.1 µM (inactive), the GI50 (NCI-H522) was > 100 µM (inactive) and the GI50 (NCI-H460) was 18.2 µM (inactive). The GI50 (M19-MEL) was 19.7 µM (inactive), the GI50 (LOX IMVI) was 17.9 µM (inactive) and the GI50 (SK-MEL-28) was 3.03 µM (inactive). For the same compound, the GI50 (OVCAR-4) was 46.8 µM (inactive), the GI50 (SF-539) was 15.6 µM (inactive) and the GI50 (HOP-18) was > 100 µM (inactive).
With `O=C1CCc2ccc(O)c(c2)Oc2ccc(cc2)[C@@H]2O[C@@H]2CO1` the GI50 (M14) was 41.6 µM (inactive), the GI50 (MOLT-4) was 23.9 µM (inactive) and the GI50 (OVCAR-3) was 32.8 µM (inactive). The GI50 (U-251) was 67.8 µM (inactive), the GI50 (NCI-H23) was 38.4 µM (inactive) and the GI50 (COLO 205) was 98.9 µM (inactive). The GI50 (UACC-62) was 30.5 µM (inactive), the GI50 (XF498) was 5.26 µM (inactive) and the GI50 (SK-OV-3) was 27 µM (inactive). The GI50 (DLD-1) was 55.8 µM (inactive), the GI50 (CCRF-CEM) was 76 µM (inactive) and the GI50 (SNB-75) was 37.9 µM (inactive). The GI50 (NCI-H226) was 40.5 µM (inactive), the GI50 (RPMI-8226) was 28.9 µM (inactive) and the GI50 (SNB-19) was 82.6 µM (inactive). For the same compound, the GI50 (SF-268) was > 10 µM (inactive), the GI50 (SN12C) was 62.4 µM (inactive) and the GI50 (DMS-114) was 20 µM (inactive). For the same compound, the GI50 (786-0) was > 100 µM (inactive), the GI50 (K562) was 24.6 µM (inactive) and the GI50 (SF-295) was 56.1 µM (inactive). The GI50 (A498) was 29 µM (inactive), the GI50 (SK-MEL-2) was 34 µM (inactive) and the GI50 (OVCAR-8) was 75.5 µM (inactive). The GI50 (UACC-257) was 48.4 µM (inactive), the GI50 (SR) was 30.1 µM (inactive) and the GI50 (KM12) was 72.8 µM (inactive). For the same compound, the GI50 (SW-620) was 53.6 µM (inactive), the GI50 (Malme-3M) was 22.2 µM (inactive) and the GI50 (EKVX) was 59.8 µM (inactive). The GI50 (ACHN) was 61.8 µM (inactive), the GI50 (SK-MEL-5) was 23.6 µM (inactive) and the GI50 (OVCAR-5) was 54.2 µM (inactive). For the same compound, the GI50 (IGROV-1) was 17.8 µM (inactive), the GI50 (HCC 2998) was > 100 µM (inactive) and the GI50 (UO-31) was 23.8 µM (inactive). The GI50 (A549) was 56.8 µM (inactive), the GI50 (LXFL 529) was 33.2 µM (inactive) and the GI50 (HOP-62) was > 100 µM (inactive). The GI50 (CAKI-1) was 29.6 µM (inactive), the GI50 (TK-10) was 73.5 µM (inactive) and the GI50 (KM-20L2) was 88.5 µM (inactive). The GI50 (HL-60) was 37.9 µM (inactive), the GI50 (HT-29) was 89.3 µM (inactive) and the GI50 (HOP-92) was 23.7 µM (inactive). For the same compound, the GI50 (HCT-116) was 48.2 µM (inactive), the GI50 (M19-MEL) was 38.1 µM (inactive) and the GI50 (LOX IMVI) was 40.8 µM (inactive). The GI50 (SK-MEL-28) was 49.2 µM (inactive), the GI50 (OVCAR-4) was 41 µM (inactive) and the GI50 (SF-539) was 70.6 µM (inactive). The GI50 (HOP-18) was 25.6 µM (inactive).
